Experimental data reported in ChEMBL document CHEMBL4251720, “Estrogen Receptor (ER) Subtype Selectivity Identifies 8-Prenylapigenin as an ERβ Agonist from Glycyrrhiza inflata and Highlights the Importance of Chemical and Biological Authentication” (J Nat Prod, 2018).
Each block holds one compound with its values, some of them ahead of it.

Experiments:
Estrogen receptor beta [1] = molecular target: T1, Estrogen receptor beta (Homo sapiens, UniProt Q92731)
Description: (§1) Estrogenic activity at ERbeta (unknown origin) expressed in human MDA-MB-231/beta41 cells after 18 hrs by renilla luciferase reporter gene assay

[2] = molecular target: T2, Estrogen receptor alpha (ERalpha) (Homo sapiens, UniProt P03372); assay: in vitro; details: Ishikawa cells, probe p-nitrophenol (so in the source) as alkaline phosphatase substrate
T2 sequence (P03372 whole entry): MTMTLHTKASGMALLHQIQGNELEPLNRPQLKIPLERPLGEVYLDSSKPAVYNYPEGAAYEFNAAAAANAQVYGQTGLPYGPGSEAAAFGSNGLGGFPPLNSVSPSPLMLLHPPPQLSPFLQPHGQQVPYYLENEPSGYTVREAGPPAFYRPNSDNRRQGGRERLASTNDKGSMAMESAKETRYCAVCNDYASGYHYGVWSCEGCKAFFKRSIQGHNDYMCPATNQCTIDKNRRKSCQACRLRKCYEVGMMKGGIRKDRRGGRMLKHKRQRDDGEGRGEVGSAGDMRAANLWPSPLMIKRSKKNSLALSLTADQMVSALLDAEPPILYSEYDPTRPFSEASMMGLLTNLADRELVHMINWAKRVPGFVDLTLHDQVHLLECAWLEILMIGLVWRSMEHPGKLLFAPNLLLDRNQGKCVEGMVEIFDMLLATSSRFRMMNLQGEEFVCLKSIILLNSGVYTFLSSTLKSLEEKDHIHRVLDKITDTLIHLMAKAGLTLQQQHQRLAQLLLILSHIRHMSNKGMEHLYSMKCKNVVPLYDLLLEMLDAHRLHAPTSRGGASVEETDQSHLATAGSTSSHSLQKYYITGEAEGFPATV
Description: Estrogenic activity at ERalpha in human Ishikawa cells assessed as induction of alkaline phosphatase activity using p-nitrophenol as substrate treated for 96 hrs followed by substrate addition by spectrophotometric method relative to estradiol

Estrogen receptor [3] = molecular target: T3, Estrogen receptor (Homo sapiens, UniProt P03372)
T3 sequence (P03372 whole entry): T2 sequence (P03372 whole entry)
Description: Estrogenic activity at ERalpha in human Ishikawa cells assessed as induction of alkaline phosphatase activity using p-nitrophenol as substrate treated for 96 hrs followed by substrate addition by spectrophotometric method

Estrogen receptor beta [4] = molecular target: T1, Estrogen receptor beta; remark: listed apart in the source
Description: as §1

Estrogen receptor [5] = molecular target: T3, Estrogen receptor; assay: Estrogenic activity at ERalpha in human Ishikawa cells assessed as induction of alkaline phosphatase activity at 0.01 to 1 uM using […] as substrate treated for 96 hrs followed by substrate addition by spectrophotometric method; format: cell-based

T1 sequence (Q92731 whole entry): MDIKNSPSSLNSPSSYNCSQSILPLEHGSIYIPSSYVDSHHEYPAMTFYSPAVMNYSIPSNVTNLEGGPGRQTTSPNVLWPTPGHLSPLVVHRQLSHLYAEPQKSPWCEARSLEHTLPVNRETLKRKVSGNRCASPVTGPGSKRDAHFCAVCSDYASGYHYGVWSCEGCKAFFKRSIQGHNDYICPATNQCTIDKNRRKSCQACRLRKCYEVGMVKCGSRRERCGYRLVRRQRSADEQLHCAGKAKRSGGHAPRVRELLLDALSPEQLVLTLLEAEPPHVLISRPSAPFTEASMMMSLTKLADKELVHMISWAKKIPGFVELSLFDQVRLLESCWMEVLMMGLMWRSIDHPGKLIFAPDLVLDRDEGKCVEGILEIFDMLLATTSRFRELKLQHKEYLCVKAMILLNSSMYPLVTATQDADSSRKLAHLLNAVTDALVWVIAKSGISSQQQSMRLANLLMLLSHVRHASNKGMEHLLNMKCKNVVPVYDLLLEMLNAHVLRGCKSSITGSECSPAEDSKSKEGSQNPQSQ

Compound: CCCc1c(-c2ccc(O)cc2)nn(-c2ccc(O)cc2)c1-c1ccc(O)cc1 [PROPYLPYRAZOLETRIOL]
EC50 (Estrogen receptor beta [1]): Not Active
Emax at 96 h [2]: 119%
EC50 (Estrogen receptor [3]): 1 nM

Compound: CC(C)=CCc1c(O)cc(O)c2c1O[C@H](c1ccc(O)cc1)CC2=O
EC50 (Estrogen receptor beta [4]): 5 nM

Activity (Estrogen receptor [5]): Not Active
Compound: COc1cc(O)c(C(=O)/C=C/c2ccc(O)cc2)cc1CC=C(C)C
